# Data published in ChEMBL document CHEMBL1201862, “PubChem BioAssay data set” (2004).
# Calls of active or inactive are those of the source.
# Experiments:
# [1] = target: T1, CAAX prenyl protease 2 (Saccharomyces cerevisiae S288c, UniProt Q03530); type: biochemical
# T1 sequence (Q03530 whole entry): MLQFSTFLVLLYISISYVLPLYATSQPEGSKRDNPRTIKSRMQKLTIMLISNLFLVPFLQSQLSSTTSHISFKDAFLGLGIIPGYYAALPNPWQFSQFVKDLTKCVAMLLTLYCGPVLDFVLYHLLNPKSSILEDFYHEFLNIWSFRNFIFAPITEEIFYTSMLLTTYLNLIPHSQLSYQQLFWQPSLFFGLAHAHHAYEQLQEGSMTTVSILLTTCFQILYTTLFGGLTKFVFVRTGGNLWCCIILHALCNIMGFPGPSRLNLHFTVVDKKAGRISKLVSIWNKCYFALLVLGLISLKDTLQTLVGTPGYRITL
# [2] = system: HEK293; assay: cells; settings: Homo sapiens
# [3] = system: HEK293; assay: cells; settings: Homo sapiens; remark: listed apart in the source
# [4] = target: SUMO-activating enzyme (Homo sapiens, UniProt Q9UBT2); assay: SUMOylation inhibitor hit validation, confirmation, SUMOylation inhibitor project, biochemical, AlphaScreen (AID 2018); type: functional
# Chain of SUMO-activating enzyme (Q9UBE0 whole entry): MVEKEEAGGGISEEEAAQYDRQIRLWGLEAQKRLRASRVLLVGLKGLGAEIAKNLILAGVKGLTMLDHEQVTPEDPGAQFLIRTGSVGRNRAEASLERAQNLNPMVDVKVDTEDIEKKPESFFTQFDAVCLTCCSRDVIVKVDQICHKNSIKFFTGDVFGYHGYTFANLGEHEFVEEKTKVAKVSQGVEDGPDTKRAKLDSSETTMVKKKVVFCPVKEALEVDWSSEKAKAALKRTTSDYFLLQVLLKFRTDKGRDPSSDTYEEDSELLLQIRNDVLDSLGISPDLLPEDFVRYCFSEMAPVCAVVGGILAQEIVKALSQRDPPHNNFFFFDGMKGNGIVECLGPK
# Chain of SUMO-activating enzyme (Q9UBT2 whole entry): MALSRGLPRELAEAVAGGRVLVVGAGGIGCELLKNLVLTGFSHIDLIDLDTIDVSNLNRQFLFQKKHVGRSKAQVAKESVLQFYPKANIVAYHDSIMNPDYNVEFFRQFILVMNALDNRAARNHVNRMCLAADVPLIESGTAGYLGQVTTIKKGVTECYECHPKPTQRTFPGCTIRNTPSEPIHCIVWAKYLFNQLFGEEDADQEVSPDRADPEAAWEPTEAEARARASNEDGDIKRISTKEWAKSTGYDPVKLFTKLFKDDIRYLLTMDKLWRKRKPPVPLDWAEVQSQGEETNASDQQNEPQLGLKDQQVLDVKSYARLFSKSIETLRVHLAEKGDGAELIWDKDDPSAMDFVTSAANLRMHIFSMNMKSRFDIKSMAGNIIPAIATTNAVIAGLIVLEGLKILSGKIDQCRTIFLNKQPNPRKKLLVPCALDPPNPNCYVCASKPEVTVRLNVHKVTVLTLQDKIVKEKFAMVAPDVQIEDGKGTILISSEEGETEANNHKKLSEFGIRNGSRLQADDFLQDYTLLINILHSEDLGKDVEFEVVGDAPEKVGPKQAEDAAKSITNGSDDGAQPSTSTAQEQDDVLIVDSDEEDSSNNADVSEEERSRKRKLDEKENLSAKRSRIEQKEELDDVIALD
# [5] = target: T2, Coagulation factor XII (Homo sapiens, UniProt P00748); type: functional;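 further: activated factor XIIa alpha cleaving a fluorogenic AMC peptide substrate; inhibitor potency from loss of enzyme activity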
# T2 sequence (P00748 whole entry): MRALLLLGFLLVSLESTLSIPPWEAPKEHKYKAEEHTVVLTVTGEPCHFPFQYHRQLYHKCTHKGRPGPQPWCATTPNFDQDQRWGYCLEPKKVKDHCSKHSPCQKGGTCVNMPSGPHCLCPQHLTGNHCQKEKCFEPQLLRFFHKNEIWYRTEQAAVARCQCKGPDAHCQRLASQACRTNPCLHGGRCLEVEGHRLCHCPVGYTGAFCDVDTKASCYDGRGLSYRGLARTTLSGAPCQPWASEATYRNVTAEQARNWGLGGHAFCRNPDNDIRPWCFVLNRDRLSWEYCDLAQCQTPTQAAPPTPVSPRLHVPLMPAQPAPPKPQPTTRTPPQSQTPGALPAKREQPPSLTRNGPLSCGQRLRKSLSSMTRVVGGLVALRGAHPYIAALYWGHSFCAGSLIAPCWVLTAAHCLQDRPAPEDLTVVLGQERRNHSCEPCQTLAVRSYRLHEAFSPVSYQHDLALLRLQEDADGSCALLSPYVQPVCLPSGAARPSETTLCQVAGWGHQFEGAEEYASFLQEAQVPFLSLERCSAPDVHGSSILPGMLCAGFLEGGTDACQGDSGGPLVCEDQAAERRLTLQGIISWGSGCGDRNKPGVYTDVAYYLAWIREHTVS
# [6] = system: Escherichia coli; assay: microbe, parasite or virus in culture
# [7] = Vero E6 cell cytotoxicity, dose response, cytotoxicity control for non-replicating M. tuberculosis project, secondary assay (AID 492998); type: functional, VeroE6; settings: Vero C1008
# [8] = THP-1 cell cytotoxicity, dose response, cytotoxicity control for non-replicating M. tuberculosis project (AID 489025); type: functional
# [9] = cells; type: functional
smiles,measurement,setting,value
Cc1ccc(-c2cc(C)nc3nc(N)nn23)cc1,AC50,[1],62.7 µM (active)
CCOC(=O)CSc1nc(N)c(C#N)c(-c2ccc(OCC)cc2)c1C#N,EC50,[2],> 59.6 µM (inactive)
same,EC50,[3],> 59.6 µM (inactive)
COc1ccc(Cc2n[nH]c(=S)n2NC(=O)Nc2ccc(C)cc2)cc1,IC50,[4],> 100 µM (inactive)
Cc1ccc(C(=O)NCC(=O)OC(C)C(=O)Nc2ccc(N3CCOCC3)cc2)s1 (centres undefined),IC50,[5],> 50 µM (inactive)
Cn1c(=O)oc2cc(S(=O)(=O)NCCN3CCCCCC3)ccc21,AC50,[6],24.2 µM (active)
O=C(NNC(=O)c1cnccn1)c1ccc(Cl)c(Cl)c1,CC50,[7],12.5 µM (active)
same,CC50,[8],14.6 µM (active)
same,IC50,[9],6.17 µM (active)
